Assay [1] has as its target T1, CODA71 chimeric receptors (Homo sapiens, UniProt P36544, F159M/H163T/I152M/R155K/V154L/W156N/Y151P). The experiment in a line: Whole cell current clamp recording of CA1 neurons in acute slices, TC-5619 bath application. Type of assay: cell-based, C57BL/6 mice.
The target in assay [2] is T1, CODA71 chimeric receptors. The experiment in a line: Evoked hippocampal seizure threshold, perforant pathway electrical stimulation. Type of assay: in vivo, C57BL/6 mice. As to conditions: for increase of minimal threshold potential to evoke electrographic seizures: i.p. TC-5619 (100 mg/kg). On the procedure: (§1) Changes to evoked hippocampal seizure thresholds were measured in response to perforant pathway electrical stimulation. For spontaneous seizure experiments, mice were unilaterally injected intrahippocampally with kainic acid (KA) to induce epilepsy, 3 weeks prior to AAV9 injection and EEG electrode implantation.
In one set of animal studies, two weeks prior to seizure threshold testing, CODA71 were bilaterally-expressed in CA1/DG, along with bipolar electrode placement in CAT and the perforant pathway. 45 minutes prior to threshold testing, mice received 100 mg/kg TC-5619 or saline via i.p. injection. Electrical stimulation (1 sec at 60 Hz, 1 ms pulses) of increasing amplitude was delivered every 100 seconds, until electrographic seizures were evoked (FIG. 29).
Here evoked seizure thresholds were determined by monitoring responses to increasing amplitude electrical stimulation and as the minimal stimulation amplitude required to evoke sustained epileptic form activity in each trial.

In assay [3] the target is T1, CODA71 chimeric receptors. The experiment in a line: Spontaneous seizures in the intrahippocampal kainic acid focal epilepsy model (chronic EEG). Type of assay: in vivo, C57BL/6 mice. Particulars: for focal seizures (overall conclusion): CODA71 delivered by AAV9 to hippocampus, activated by TC-5619. As to the method:
as §1
In one set of animal studies, seven weeks prior to testing of neuron activities, kainic acid was unilaterally injected into CAT to evoke spontaneous seizures. Five weeks later, CODA71 receptor were bilaterally expressed in CA1/DG, along with bipolar electrode placement in CAT for recording EEG (FIG. 32). Spontaneous seizures were tracked with chronic EEG recordings. On alternating days, mice received two i.p. injections of either 100 mg/kg TC-5619 or saline, 2 hrs apart.

Assay [4] relates to hippocampal neurons. Briefly: Hippocampal expression of CODA71 receptor after AAV9 delivery. Type of assay: in vivo, C57BL/6 mice. As to conditions: hSyn promoter.
The mark [5] stands for this setting: CODA71 vector injected mice, 100 mg/kg TC-5619 i.p. 45 minutes prior.
The mark [6] stands for this setting: scrambled control vector injected mice, TC-5619.

Results on two molecules are retold here after US20240108760A1 (priority 2021, published 2024).

“Also recorded” adds a separate entry of the source. Read-outs that look alike come from different tables or passages of the source.

Turning to `O=C(N[C@@H]1C2CCN(CC2)[C@H]1Cc1cccnc1)c1cc2ccccc2o1` [TC-5619], the “neuronal / CA1 action potential firing, excitability” value in assay [1] is “suppressed CA1 action potential firing”. The molecule further came in with a rheobase in assay [1] of 368±39.7 pA. The “neuron property change in presence of bungarotoxin (BTX)” value in assay [1] (CODA71 vector vs scrambled control vector, α7-nAChR ligand binding domain inhibited by BTX) was “little property change”. For the same molecule, the “intrinsic properties of whole cell recorded neurons (RMP, input resistance, rheobase, AP count)” value in assay [1] (after 1 minute application of 150 nM TC-5619) was “rapidly changed”. Further, the “increase of minimal threshold potential to evoke electrographic seizures” value in assay [2] (CODA71 animals, p=0.0166 vs scrambled controls) was 139±48.0%; in assay [2] (scrambled controls), −10±13.2%. Moreover, the “electrically-evoked seizure threshold” value in assay [2] (setting [5]) was “increased more”; in assay [2] (setting [6]), “did not change seizure thresholds”. In addition, in assay [3], the “focal seizures (overall conclusion)” value was “ameliorate spontaneous focal seizures”. Also, the electrographic seizure duration result in assay [3] (CODA71 vector mice, KA epileptic, i.p. TC-5619 100 mg/kg, p=0.0011, 100 mg/kg) is given as “significantly reduced; also recorded: substantial decrease in seizure duration”. In addition, in assay [3] (CODA71 vector mice, KA epileptic, i.p. TC-5619 100 mg/kg, p=0.0325, 100 mg/kg), the “electrographic / spontaneous seizure frequency” value is “significantly reduced; also recorded: dropped dramatically; also recorded: prolonged decrease in seizure frequency”. In addition, the “spontaneous seizure frequency and duration” value in assay [3] (setting [6]) was “little change; also recorded: No such effect was observed”.

B1: CODA71: chimeric LGIC: human α7-nAChR ligand binding domain with GlyRα1 Cys-loop, fused to human GlyRα1 ion pore domain; SEQ ID NO: 33 (protein)
chain: MRCSPGGVWLALAASLLHVSLQGEFQRKLYKELVKNYNPLERPVANDSQPLTVYFSLSLLQIMDVDEKNQVLTTNIWLQMSWTDHYLQWNVSEYPGVKTVRFPDGQIWKPDILLYNSADERFDATFHTNVLVNSSGHCQYLPPGIFKSSCPMDLKNFPMDVQTCKLKFGSWSYGGWSLDLQMQEADISGYIPNGEWDLVGIPGKRSERFYECCKEPYPDVTFTVTMRRRMGYYLIQMYIPSLLIVILSWISFWINMDAAPARVGLGITTVLTMTTQSSGSRASLPKVSYVKAIDIWMAVCLLFVFSALLEYAAVNFVSRQHKELLRFRRKRRHHKSPMLNLFQEDEAGEGRFNFSAYGMGPACLQAKDGISVKGANNSNTTNPPPAPSKSPEEMRKLFIQRAKKIDKISRIGFPMAFLIFNMFYWIIYKIVRREDVHNQ
As to B1, in assay [1] (acute slices, CODA71 transduced, 1-minute bath application of 150 nM TC-5619), the “neuronal / CA1 action potential firing, excitability” value is “effectively suppress neuronal firing; also recorded: successfully suppressed hippocampal neuronal excitability”. In addition, the “expression of CODA71 receptor in hippocampal / CA1 neurons” value in assay [4] is “expressed well; also recorded: effective expression”. Moreover, the “electrically-evoked seizure threshold” value in assay [2] (setting [5]) is listed as “increased”. The “focal seizures (overall conclusion)” value in assay [3] is “effectively suppress focal seizure; also recorded: ameliorate spontaneous focal seizures; also recorded: prevented both evoked and spontaneous focal seizures”.
